Source: paper PMC4535766, “Antiprotozoal Activity Profiling of Approved Drugs: A Starting Point toward Drug Repositioning” (PLoS ONE, 2015)
Counter-ions that a name gives are not always drawn. Like-named read-outs stand apart in the source and are kept apart here.

Columns and labels:
[1] = tested on: T. b. rhodesiense strain STIB 900, trypomastigotes; experiment: In vitro activity against T. b. rhodesiense, serial drug dilution assay; settings: for IC50: Trypanosoma brucei; for Activity against T. b. rhodesiense (in words): in vitro; for selectivity ratio / Selectivity index: IC50 Cytotoxicity L6/ IC50 T. b. rhodesiense: rat
Method: (§1) Drug stock solutions (10mg/ml) were in DMSO (100%). […] Selectivity index (SI) was calculated as IC50 L6 cells/IC50 parasite.

[2] = in vitro; settings: rat
Method: as §1

[3] = tested on: T. cruzi, strain Tulahuen C4, intracellular amastigotes; experiment: microbe, parasite or virus in culture; settings: for IC50: Trypanosoma cruzi, TULAHUEN; for selectivity ratio: rat, Selectivity index: IC50 Cytotoxicity L6/ IC50 T. cruzi
Method: as §1

[4] = tested on: axenic amastigotes of L. donovani, strain MHOM-ET-67/L82; experiment: In vitro activity against L. donovani axenic amastigotes, serial drug dilution assay; format: cell-based, Leishmania donovani
Method: as §1

[5] = tested on: L. donovani strain MHOM-ET-67/L82 amastigotes; experiment: in vitro; settings: mouse, Selectivity index: IC50 Cytotoxicity macrophages/ IC50 L. donovani
Method: (§2) After 24 h 1.2 x 10^5 amastigote L. donovani in 100 μl were added. The amastigotes were taken from an axenic culture grown at pH 5.4. Four hours later, the medium containing free amastigote forms was removed and replaced by fresh medium. The next day the medium was replaced by medium with or without a serial drug dilution of seven 3-fold dilution steps covering a range from 30 to 0.04 μg/ml. Parasite growth in the presence of the drug was compared to control wells. After 96 h of incubation, the medium was removed and the slides fixed with methanol for 10 min followed by staining with a 10% Giemsa solution. Infected and non-infected macrophages were counted for the control cultures and those exposed to the serial drug dilutions. The infection rates were determined. The results were expressed as a percentage reduction in parasite burden compared to control wells, and the IC50 was calculated by linear regression analysis. The collection of mouse peritoneal macrophages was done at the Swiss Tropical and Public Health Institute (Basel) according to the rules and regulations for the protection of animal rights ("Tierschutzverordnung") of the Swiss "Bundesamt für Veterinärwesen".

[6] = tested on: intracellular amastigotes of L. donovani strain MHOM-ET-67/L82; experiment: Activity against Leishmania donovani intracellular amastigotes in mouse peritoneal macrophages; settings: Leishmania donovani, Peritoneal macrophage, in Mus musculus
Method: as §2

[7] = tested on: P. falciparum strain K1; experiment: In vitro activity against P. falciparum, serial drug dilution assay; settings: for IC50: Plasmodium falciparum; for selectivity ratio: rat
Method: as §1

[8] = Cytotoxicity on macrophages infected with L. donovani; format: cell-based, mouse; settings: mouse
[9] = Leishmania donovani, axenic amastigotes, strain MHOM-ET-67/L82, means of two independent assays, read-out: IC50 L. don. axen.
[10] = 96 h, read-out: IC50 L. don. intracell
[11] = macrophages infected with L. donovani, read-out: IC50 Cytotox. mac.inf.
[12] = infected macrophages, read-out: Cytotox. mac.inf. IC50
[13] = axenic amastigotes, strain MHOM-ET-67/L82, means of two independent assays, read-out: IC50 L. don. axen.
[14] = L6 cells versus T. b. rhodesiense STIB 900 trypomastigotes
[15] = Selectivity index: IC50 Cytotoxicity L6/ IC50 P. falciparum
[16] = Selectivity index: IC50 Cytotoxicity L6/ IC50 T. b. rhodesiense
[17] = Leishmania donovani, L. donovani axenic amastigotes, read-out: L. don. axen. IC50
[18] = read-out: L. don. intracell IC50
[19] = L6 cells, IC50 Cytotox. L6, L6 cells, means of two independent assays

Row | SMILES | IC50 ([1]; read-out: T. b. rhod. IC50) [µM] | IC50 ([3]; read-out: T. cruzi IC50) [µM] | IC50 [4, 9] [µM] | IC50 [6, 10] [µM] | IC50 at 96 h [8, 11] [µM] | IC50 ([2]; IC50 Cytotox. L6) [µM] | IC50 ([7]; K1, read-out: IC50 P. falc. K1) [µM] | IC50 ([1]; read-out: IC50 T. b. rhod.) [µM] | IC50 ([3]; read-out: IC50 T. cruzi) [µM] | also measured
1 | Cc1cccc(N(C)C(=S)Oc2ccc3ccccc3c2)c1 [Tolnaftate] | 69.3 | 20 | 4.33 | 50.1 | > 97.6 |  |  |  |  | IC50 ([2]; Cytotox. L6 IC50): 84.6 µM; selectivity ratio at 96 h [5]: > 23; IC50 ([7]; K1, read-out: P. falc. IC50): 19 µM; IC50 at 96 h [8, 12]: > 97.6 µM
2 | CO[C@H]1/C=C/O[C@@]2(C)Oc3c(C)c(O)c4c(O)c(c(/C=N/N5CCN(C)CC5)c(O)c4c3C2=O)NC(=O)/C(C)=C\C=C\[C@H](C)[C@H](O)[C@@H](C)[C@@H](O)[C@@H](C)[C@H](OC(C)=O)[C@@H]1C [Rifampicin] | 16.7 | > 109 | < 3 | > 36.5 | > 36.5 | 75.2 | 0.1 |  |  | Activity against T. b. rhodesiense (in words) [1]: devoid of antitrypanosomal activity; IC50 [4, 13]: 1.53 µM; selectivity ratio at 96 h [5]: > 24; IC50 at 96 h [8, 12]: > 36.5 µM
3 | CO[C@H]1/C=C/O[C@@]2(C)Oc3c(C)c(O)c4c(O)c(cc(O)c4c3C2=O)NC(=O)/C(C)=C\C=C\[C@H](C)[C@H](O)[C@@H](C)[C@@H](O)[C@@H](C)[C@H](OC(C)=O)[C@@H]1C [Rifamycin SV (Sodium salt), Rifamycin SV] |  | 50 | < 3 | > 13.9 | 41.6 | 15.7 | 0.55 | 0.99 |  | selectivity ratio [1, 14]: 16; IC50 [4, 13]: 1.5 µM; selectivity ratio at 96 h ([5]; mouse peritoneal macrophages versus L. donovani amastigotes, axenic or intracellular IC50 not specified): 28; selectivity ratio [7, 15]: 29
4 | O=C(N/N=C/c1ccc([N+](=O)[O-])o1)c1ccc(O)cc1 [Nifuroxazide] |  |  | < 3 | > 10.9 | 36.2 | 12.3 | 7.82 | 0.03 | 0.23 | selectivity ratio [1]: 410; selectivity ratio [3]: 54; IC50 [4, 13]: 2.83 µM; selectivity ratio at 96 h [5]: 13
5 | CN(C)CCC=C1c2ccccc2CCc2ccccc21 [Amitriptyline] |  |  | 131 | > 10.8 | 36.1 |  | 1.16 | 3.03 | 35.1 | selectivity ratio [1, 16]: 14; IC50 [2]: 42.2 µM; Activity against P. falciparum (in words) ([7]; in vitro): micromolar range
6 | Nc1nc(O)c2ncn(COC(CO)CO)c2n1 [Ganciclovir] |  |  | > 392 | > 118 | > 118 | 179 | > 196 | 252 | 240 | 
7 | C[C@@H](c1ncncc1F)[C@](O)(Cn1cncn1)c1ccc(F)cc1F [Voriconazole] |  |  | > 286 | > 85.9 | > 85.9 | 195 | > 143 | > 286 | 11.2 | 
8 | CNCCC=C1c2ccccc2CCc2ccccc21 [Nortryptyline] |  |  | > 342 | > 11.4 | 38 |  | 0.58 | 1.17 | 22.9 | Selectivity index: IC50 Cytotoxicity L6/ IC50 T. b. rhodesiense [1]: 24; selectivity ratio [1, 16]: > 20; IC50 [2]: 27.9 µM; selectivity ratio [7]: 48
9 | O=C(O)c1cn(C2CC2)c2cc(N3CCNCC3)c(F)cc2c1=O [Ciprofloxacin] | 35.9 | 92 |  |  |  |  |  |  |  | IC50 ([2]; Cytotox. L6 IC50): 118 µM; IC50 [4, 17]: > 302 µM; IC50 [6, 18]: > 90.5 µM; IC50 ([7]; K1, read-out: P. falc. IC50): 13.2 µM; IC50 at 96 h [8, 12]: > 90.5 µM
10 | COc1ccc(Cl)cc1C(=O)NCCc1ccc(S(=O)(=O)NC(=O)NC2CCCCC2)cc1 [Glybenclamide] | 87.7 | 93.9 |  |  |  |  |  |  |  | IC50 [2]: 116 µM; IC50 [4, 17]: 9.8 µM; IC50 [6, 18]: > 60.7 µM; IC50 ([7]; K1, read-out: P. falc. IC50): 38.3 µM; IC50 at 96 h [8, 12]: > 60.7 µM
11 | C[C@H]1[C@H](OC(=O)CCC(=O)O)O[C@@H]2O[C@@]3(C)CC[C@H]4[C@H](C)CC[C@@H]1[C@@]24OO3 [Artesunate] |  |  |  | > 7.8 | > 7.8 | 0.78 | 0.003 | 16.8 | 8.97 | IC50 ([4]; axenic amastigotes, strain MHOM-ET-67/L82, means of two independent assays, listed as artesunate, read-out: IC50 L. don. axen.): < 3 µM; IC50 [4, 13]: 0.35 µM; selectivity ratio at 96 h [5]: > 22; selectivity ratio [7, 15]: 260
12 | CC(=O)OCC(CCn1cnc2cnc(N)nc21)COC(C)=O [Famciclovir] |  |  | > 311 | > 93.4 | > 93.4 | 180 | > 156 | 225 | 207 | 
13 | CO[C@H]1/C=C/O[C@@]2(C)Oc3c(C)c(O)c4c(c3C2=O)C2=NC3(CCN(CC(C)C)CC3)NC2=C(NC(=O)/C(C)=C\C=C\[C@H](C)[C@H](O)[C@@H](C)[C@@H](O)[C@@H](C)[C@H](OC(C)=O)[C@@H]1C)C4=O [Rifabutin] | 12.6 | 27.5 |  |  |  |  |  |  |  | Activity against T. b. rhodesiense (in words) [1]: devoid of antitrypanosomal activity; IC50 ([2]; Cytotox. L6 IC50): 60.9 µM; IC50 [4, 17]: 56.4 µM; IC50 [6, 18]: > 35.4 µM; IC50 ([7]; K1, read-out: P. falc. IC50): 1.59 µM; IC50 at 96 h [8, 12]: > 35.4 µM
14 | Cc1ncc([N+](=O)[O-])n1CCO [Metronidazole] |  |  | 491 | > 175 | > 175 | 339 | 277 | 338 | 279 | Activity against T. b. rhodesiense (in words) [1]: inactive
15 | Cc1c(O)cccc1C(=O)N[C@@H](CSc1ccccc1)[C@H](O)CN1C[C@H]2CCCC[C@H]2C[C@H]1C(=O)NC(C)(C)C [Nelfinavir] |  |  | 9.62 | 20.2 | > 52.8 | 12.1 | 10.4 | 20.6 | 10.2 | 
16 | O=C1CN(/N=C/c2ccc([N+](=O)[O-])o2)C(=O)N1 [Nitrofurantoine] |  |  | < 3 | > 41.8 | 125 | 90.3 |  | 0.5 | 4.35 | Selectivity index: IC50 Cytotoxicity L6/ IC50 T. b. rhodesiense [1]: 181; selectivity ratio [1, 16]: 180; selectivity ratio [3]: 21; IC50 [4, 13]: 2.12 µM; selectivity ratio at 96 h [5]: 59
17 | COC1=CC(=O)C[C@@H](C)[C@]12Oc1c(Cl)c(OC)cc(OC)c1C2=O [Griseofulvin] | 40 | 87.3 |  |  |  |  |  |  |  | IC50 ([2]; Cytotox. L6 IC50): 20.5 µM; IC50 [4, 17]: 87 µM; IC50 [6, 18]: > 85 µM; IC50 ([7]; K1, read-out: P. falc. IC50): 75.1 µM; IC50 at 96 h [8, 12]: > 85 µM
18 | Nc1ccc(S(=O)(=O)c2ccc(N)cc2)cc1 [Dapsone] |  |  | > 403 | > 121 | > 121 | 204 | 168 | 353 | 220 | 
19 | CN(C/C=C/C#CC(C)(C)C)Cc1cccc2ccccc12 [Terbinafine (Hydrochloride), Terbinafine] |  |  | 23 | 69.5 |  |  | 7.72 | 95.2 | 40.9 | IC50 [2, 19]: 47 µM; IC50 at 96 h ([8]; mouse peritoneal macrophages infected with L. donovani, macrophages infected with L. donovani, read-out: IC50 Cytotox. mac.inf.): > 91.5 µM
20 | OC(c1cc(C(F)(F)F)nc2c(C(F)(F)F)cccc12)C1CCCCN1 (stereo not drawn) [Mefloquine (Hydrochloride), Mefloquine] | 0.53 | 4.48 |  |  |  | 3.25 | 0.002 |  |  | IC50 [4, 17]: 38.6 µM; IC50 [6, 18]: 2.41 µM; IC50 ([7]; K1, read-out: P. falc. IC50): 0.0024 µM; selectivity ratio [7, 15]: 1350; MCC at 96 h [8, 12]: 7.23 µM
21 | CN(C)CCCN1c2ccccc2Sc2ccccc21 [Promazine] |  |  | > 316 | > 35.2 | > 35.2 |  | 0.49 | 2.16 | 49.1 | selectivity ratio [1, 14]: 14; IC50 [2, 19]: 30.1 µM; selectivity ratio ([7]; L6 cells versus P. falciparum K1, Selectivity index: IC50 Cytotoxicity L6/ IC50 P. falciparum): 61
22 | O=C(O)COCCN1CCN(C(c2ccccc2)c2ccc(Cl)cc2)CC1 (stereo not drawn) [Cetirizine (Hydrochloride), Cetirizine] |  |  | 186 | > 70.5 | > 70.5 | 149 | 20 | 99.5 | 120 | 
